Reference: ChEMBL document CHEMBL3734692, “Design and synthesis of 2-oxindole based multi-targeted inhibitors of PDK1/Akt signaling pathway for the treatment of glioblastoma multiforme” (Eur J Med Chem, 2015)
Calls of active or inactive are those of the source. The rule behind the calls is not given here.

What was measured:
[1] = molecular target: Mitogen-activated protein kinase 8 (Homo sapiens) (UniProt P45983); test: Inhibition of JNK1 (unknown origin) at 1 uM by selectscreen kinase profiling assay in presence of ATP
Mitogen-activated protein kinase 8 (Homo sapiens), sequence (P45983 whole entry): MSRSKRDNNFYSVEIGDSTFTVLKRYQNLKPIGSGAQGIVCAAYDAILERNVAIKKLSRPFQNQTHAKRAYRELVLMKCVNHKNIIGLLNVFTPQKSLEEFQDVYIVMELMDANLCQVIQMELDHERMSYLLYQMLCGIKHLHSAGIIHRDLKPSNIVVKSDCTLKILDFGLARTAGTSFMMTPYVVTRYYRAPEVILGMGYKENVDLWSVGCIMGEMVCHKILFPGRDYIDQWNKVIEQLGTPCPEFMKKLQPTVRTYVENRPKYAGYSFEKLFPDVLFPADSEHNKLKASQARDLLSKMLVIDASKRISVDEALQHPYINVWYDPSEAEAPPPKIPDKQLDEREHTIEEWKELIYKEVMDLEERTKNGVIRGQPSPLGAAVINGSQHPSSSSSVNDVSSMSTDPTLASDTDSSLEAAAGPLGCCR

[2] = molecular target: cAMP-dependent protein kinase catalytic subunit alpha (Homo sapiens) (UniProt P17612); test: Inhibition of PRKACA (unknown origin) at 1 uM by selectscreen kinase profiling assay in presence of ATP
[3] = molecular target: Dual specificity protein kinase CLK1 (Homo sapiens) (UniProt P49759); test: Inhibition of CLK1 (unknown origin) at 1 uM by selectscreen kinase profiling assay in presence of ATP
Dual specificity protein kinase CLK1 (Homo sapiens), sequence (P49759 whole entry, looked up): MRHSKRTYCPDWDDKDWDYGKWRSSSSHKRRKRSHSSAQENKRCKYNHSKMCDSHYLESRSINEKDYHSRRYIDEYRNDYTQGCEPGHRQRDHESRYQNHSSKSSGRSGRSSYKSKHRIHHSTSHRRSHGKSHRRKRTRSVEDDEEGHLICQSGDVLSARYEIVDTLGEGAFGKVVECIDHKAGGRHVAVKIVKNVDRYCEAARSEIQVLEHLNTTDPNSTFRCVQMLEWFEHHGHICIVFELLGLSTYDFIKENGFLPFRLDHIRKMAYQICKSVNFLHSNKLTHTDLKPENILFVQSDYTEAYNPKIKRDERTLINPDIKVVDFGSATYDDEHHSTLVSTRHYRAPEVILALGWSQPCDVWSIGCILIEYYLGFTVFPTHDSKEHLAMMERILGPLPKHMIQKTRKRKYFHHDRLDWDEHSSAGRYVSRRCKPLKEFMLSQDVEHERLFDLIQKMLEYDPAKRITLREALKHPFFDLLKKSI

[4] = molecular target: T1, 3-phosphoinositide-dependent protein kinase 1 (Homo sapiens, UniProt O15530); test: Inhibition of PDK1 (unknown origin) in presence of 25 uM ATP incubated for 1 hr by Z'Lyte assay
T1 sequence (O15530 whole entry): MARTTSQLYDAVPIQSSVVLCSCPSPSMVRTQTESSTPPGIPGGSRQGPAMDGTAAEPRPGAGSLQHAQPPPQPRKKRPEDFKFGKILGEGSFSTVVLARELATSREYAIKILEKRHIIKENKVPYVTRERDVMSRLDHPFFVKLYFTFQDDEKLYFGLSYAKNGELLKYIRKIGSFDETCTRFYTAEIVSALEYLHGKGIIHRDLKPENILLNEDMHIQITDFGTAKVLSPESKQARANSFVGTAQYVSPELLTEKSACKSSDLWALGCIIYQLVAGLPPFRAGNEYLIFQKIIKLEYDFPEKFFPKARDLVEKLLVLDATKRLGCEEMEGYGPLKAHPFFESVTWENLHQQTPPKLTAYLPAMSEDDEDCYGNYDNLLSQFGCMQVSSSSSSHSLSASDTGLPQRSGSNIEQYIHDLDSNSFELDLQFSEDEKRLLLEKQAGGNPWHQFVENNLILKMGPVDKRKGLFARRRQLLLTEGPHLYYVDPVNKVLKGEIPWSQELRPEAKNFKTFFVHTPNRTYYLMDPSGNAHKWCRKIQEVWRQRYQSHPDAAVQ

[5] = molecular target: Protein kinase C zeta type (Homo sapiens) (UniProt Q05513); test: Inhibition of PKCzeta (unknown origin) at 1 uM by selectscreen kinase profiling assay in presence of ATP
Protein kinase C zeta type (Homo sapiens), sequence (Q05513 whole entry): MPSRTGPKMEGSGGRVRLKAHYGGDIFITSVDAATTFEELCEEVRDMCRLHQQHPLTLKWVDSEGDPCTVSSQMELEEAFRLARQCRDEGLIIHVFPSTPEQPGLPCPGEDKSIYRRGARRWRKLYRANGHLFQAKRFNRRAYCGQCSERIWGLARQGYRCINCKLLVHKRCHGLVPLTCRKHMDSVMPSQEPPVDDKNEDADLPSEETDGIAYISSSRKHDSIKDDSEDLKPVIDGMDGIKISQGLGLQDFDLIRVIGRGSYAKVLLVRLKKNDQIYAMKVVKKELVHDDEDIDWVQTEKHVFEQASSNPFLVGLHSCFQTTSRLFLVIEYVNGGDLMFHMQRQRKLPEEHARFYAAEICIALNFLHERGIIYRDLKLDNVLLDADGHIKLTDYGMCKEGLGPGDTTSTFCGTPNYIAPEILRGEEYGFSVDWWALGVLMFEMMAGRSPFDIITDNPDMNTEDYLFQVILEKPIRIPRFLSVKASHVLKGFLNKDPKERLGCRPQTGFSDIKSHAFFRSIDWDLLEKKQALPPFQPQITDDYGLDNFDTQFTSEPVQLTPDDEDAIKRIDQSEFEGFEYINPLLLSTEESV

U-118-MG = test: Antiproliferative activity against human U118MG cells assessed as inhibition of cell growth after 72 to 144 hrs by WST1 assay; assay type: functional, cell-based
[6] = molecular target: Dual specificity mitogen-activated protein kinase kinase 1 (Homo sapiens) (UniProt Q02750); test: Inhibition of MEK1 (unknown origin) at 1 uM by selectscreen kinase profiling assay in presence of ATP
Dual specificity mitogen-activated protein kinase kinase 1 (Homo sapiens), sequence (Q02750 whole entry): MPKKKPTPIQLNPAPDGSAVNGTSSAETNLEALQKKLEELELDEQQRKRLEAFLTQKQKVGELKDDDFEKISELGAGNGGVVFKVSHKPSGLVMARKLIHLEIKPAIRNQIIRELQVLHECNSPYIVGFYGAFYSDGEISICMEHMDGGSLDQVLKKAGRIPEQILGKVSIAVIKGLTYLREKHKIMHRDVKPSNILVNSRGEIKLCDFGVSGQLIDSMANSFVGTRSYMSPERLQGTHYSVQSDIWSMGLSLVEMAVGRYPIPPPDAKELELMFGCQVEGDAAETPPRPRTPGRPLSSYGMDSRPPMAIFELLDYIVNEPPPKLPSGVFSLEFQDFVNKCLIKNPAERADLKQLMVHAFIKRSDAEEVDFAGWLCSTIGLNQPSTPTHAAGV

[7] = molecular target: CDK7/Cyclin H/MNAT1 (Homo sapiens) (UniProt P51946+P50613+P51948); test: Inhibition of CDK7/cyclin H/MNAT1 (unknown origin) at 1 uM by selectscreen kinase profiling assay in presence of ATP; assay type: protein-complex assay
[8] = Induction of apoptosis in human GSC derived from ANGM-CSS cells assessed as early apoptotic cells at 1 uM after 7 days by annexin V-FITC/7-AAD dual staining based cell analysis (reference value: 3.29%); assay type: functional
[9] = test system: RAF proto-oncogene serine/threonine-protein kinase (Homo sapiens), P04049 [Y340D,Y341D]; test: Inhibition of RAF1 Y340D/Y341D double mutant (unknown origin) at 1 uM by selectscreen kinase profiling assay in presence of ATP
RAF proto-oncogene serine/threonine-protein kinase (Homo sapiens), P04049 [Y340D,Y341D], sequence (P04049 whole entry Y340D/Y341D): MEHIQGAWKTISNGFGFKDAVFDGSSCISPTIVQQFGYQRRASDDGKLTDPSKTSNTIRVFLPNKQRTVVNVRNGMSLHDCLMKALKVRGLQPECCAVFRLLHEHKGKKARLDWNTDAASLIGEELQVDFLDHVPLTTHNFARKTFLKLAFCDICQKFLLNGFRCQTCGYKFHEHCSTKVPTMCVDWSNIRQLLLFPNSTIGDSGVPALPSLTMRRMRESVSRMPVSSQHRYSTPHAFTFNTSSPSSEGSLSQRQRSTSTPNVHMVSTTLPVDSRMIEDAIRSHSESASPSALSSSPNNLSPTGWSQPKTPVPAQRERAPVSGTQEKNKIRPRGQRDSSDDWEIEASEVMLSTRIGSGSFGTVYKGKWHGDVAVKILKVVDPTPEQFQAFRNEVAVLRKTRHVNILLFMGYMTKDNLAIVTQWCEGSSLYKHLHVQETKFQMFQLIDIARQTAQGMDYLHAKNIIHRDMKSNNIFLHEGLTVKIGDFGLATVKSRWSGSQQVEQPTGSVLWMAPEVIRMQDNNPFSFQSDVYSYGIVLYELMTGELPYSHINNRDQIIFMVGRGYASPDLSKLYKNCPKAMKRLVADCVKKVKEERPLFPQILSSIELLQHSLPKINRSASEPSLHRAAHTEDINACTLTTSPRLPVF

[10] = Antiproliferative activity against human ANGM-CSS cells assessed as inhibition of cell growth after 144 hrs by WST1 assay; assay type: functional
[11] = molecular target: RAC-alpha serine/threonine-protein kinase (Homo sapiens) (UniProt P31749); test: Inhibition of recombinant Akt1 (unknown origin) incubated for 1 hr by Z'Lyte assay
[12] = molecular target: RAC-gamma serine/threonine-protein kinase (Homo sapiens) (UniProt Q9Y243); test: Inhibition of AKT3 (unknown origin) at 1 uM by selectscreen kinase profiling assay in presence of ATP
RAC-gamma serine/threonine-protein kinase (Homo sapiens), sequence (Q9Y243 whole entry): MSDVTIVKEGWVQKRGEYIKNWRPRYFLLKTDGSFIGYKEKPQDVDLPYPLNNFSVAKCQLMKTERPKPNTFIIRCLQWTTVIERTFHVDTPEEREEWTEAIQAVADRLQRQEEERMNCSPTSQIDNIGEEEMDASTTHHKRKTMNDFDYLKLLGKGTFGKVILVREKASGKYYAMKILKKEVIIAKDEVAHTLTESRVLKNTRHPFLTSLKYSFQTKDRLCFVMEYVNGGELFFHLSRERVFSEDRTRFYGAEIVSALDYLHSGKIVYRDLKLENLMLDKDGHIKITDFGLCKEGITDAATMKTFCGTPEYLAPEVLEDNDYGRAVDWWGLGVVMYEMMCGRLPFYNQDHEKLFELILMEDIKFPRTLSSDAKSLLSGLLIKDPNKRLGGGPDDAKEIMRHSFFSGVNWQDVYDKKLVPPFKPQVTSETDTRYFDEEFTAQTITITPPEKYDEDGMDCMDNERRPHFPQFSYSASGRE

[13] = Antiproliferative activity against human U118MG cells assessed as inhibition of cell growth after 96 hrs by WST1 assay; assay type: functional; conditions: U-118-MG
[14] = molecular target: Serine/threonine-protein kinase B-raf (Homo sapiens) (UniProt P15056); test: Inhibition of BRAF (unknown origin) at 1 uM by selectscreen kinase profiling assay in presence of ATP
Serine/threonine-protein kinase B-raf (Homo sapiens), sequence (P15056 whole entry): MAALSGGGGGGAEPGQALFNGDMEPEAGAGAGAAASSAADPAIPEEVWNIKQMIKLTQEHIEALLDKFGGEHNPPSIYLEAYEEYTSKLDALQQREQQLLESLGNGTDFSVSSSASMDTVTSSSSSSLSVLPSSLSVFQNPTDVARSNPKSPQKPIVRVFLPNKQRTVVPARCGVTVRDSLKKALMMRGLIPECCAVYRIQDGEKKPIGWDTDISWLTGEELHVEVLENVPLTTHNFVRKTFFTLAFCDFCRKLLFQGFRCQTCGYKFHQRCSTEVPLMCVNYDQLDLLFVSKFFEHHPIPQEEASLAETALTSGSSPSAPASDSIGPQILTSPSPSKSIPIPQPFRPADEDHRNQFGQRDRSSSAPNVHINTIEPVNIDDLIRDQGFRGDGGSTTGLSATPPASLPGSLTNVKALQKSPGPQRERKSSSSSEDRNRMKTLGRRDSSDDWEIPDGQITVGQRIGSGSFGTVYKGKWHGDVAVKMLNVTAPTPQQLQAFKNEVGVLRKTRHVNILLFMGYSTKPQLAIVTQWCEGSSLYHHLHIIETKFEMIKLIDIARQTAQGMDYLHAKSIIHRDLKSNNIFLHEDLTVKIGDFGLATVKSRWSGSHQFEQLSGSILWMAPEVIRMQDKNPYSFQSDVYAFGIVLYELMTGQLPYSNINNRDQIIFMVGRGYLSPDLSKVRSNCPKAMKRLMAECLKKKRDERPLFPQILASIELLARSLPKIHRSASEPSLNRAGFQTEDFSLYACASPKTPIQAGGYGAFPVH

[15] = molecular target: Ribosomal protein S6 kinase beta-1 (Homo sapiens) (UniProt P23443); test: Inhibition of RPS6KB1 (unknown origin) at 1 uM by selectscreen kinase profiling assay in presence of ATP
Ribosomal protein S6 kinase beta-1 (Homo sapiens), sequence (P23443 whole entry, looked up): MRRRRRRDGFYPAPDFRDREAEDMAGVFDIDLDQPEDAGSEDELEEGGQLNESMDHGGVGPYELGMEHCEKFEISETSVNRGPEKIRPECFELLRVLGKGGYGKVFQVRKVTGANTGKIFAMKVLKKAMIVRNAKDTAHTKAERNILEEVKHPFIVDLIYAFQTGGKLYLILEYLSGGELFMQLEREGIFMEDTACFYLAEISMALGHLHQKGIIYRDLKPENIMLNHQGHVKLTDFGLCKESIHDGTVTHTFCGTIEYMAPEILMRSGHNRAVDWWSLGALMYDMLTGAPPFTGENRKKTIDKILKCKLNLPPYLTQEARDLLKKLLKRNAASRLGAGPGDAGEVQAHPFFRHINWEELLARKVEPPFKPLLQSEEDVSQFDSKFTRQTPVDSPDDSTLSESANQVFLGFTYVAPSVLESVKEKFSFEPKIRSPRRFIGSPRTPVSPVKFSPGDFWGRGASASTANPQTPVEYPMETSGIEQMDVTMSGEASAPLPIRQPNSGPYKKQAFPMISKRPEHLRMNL

ANGM-CSS [16] = test: Induction of human GSC differentiation derived from ANGM-CSS cells assessed as up regulation of GFAP mRNA expression at 1 uM after 7 days by RT-PCR analysis; assay type: functional, cell-based
[17] = Antiproliferative activity against human U118MG cells assessed as inhibition of cell growth after 72 hrs by WST1 assay; assay type: functional; conditions: U-118-MG
ANGM-CSS [18] = test: Effect on human GSC morphology derived from ANGM-CSS cells assessed as outgrowth of cellular processes at 1 uM after 7 days by microscopic analysis; assay type: functional, cell-based
[19] = molecular target: Dual specificity mitogen-activated protein kinase kinase 2 (Homo sapiens) (UniProt P36507); test: Inhibition of MEK2 (unknown origin) at 1 uM by selectscreen kinase profiling assay in presence of ATP
[20] = molecular target: T1, 3-phosphoinositide-dependent protein kinase 1; test: Inhibition of PDK1 (unknown origin) incubated for 1 hr by Z'Lyte assay
Homo sapiens = species: Homo sapiens; test: Inhibition of PKCbeta I (unknown origin) at 1 uM by selectscreen kinase profiling assay in presence of ATP
[21] = Induction of apoptosis in human ANGM-CSS cells assessed as live cells at 1 uM after 7 days by annexin V-FITC/7-AAD dual staining based cell analysis (reference value: 92.21%); assay type: functional
[22] = Induction of apoptosis in human ANGM-CSS cells assessed as dead cells at 1 uM after 7 days by annexin V-FITC/7-AAD dual staining based cell analysis (reference value: 2.28%); assay type: functional
ANGM-CSS [23] = test: Induction of human GSC differentiation derived from ANGM-CSS cells assessed as down regulation of CD133 mRNA expression at 1 uM after 7 days by RT-PCR analysis; assay type: functional, cell-based
[24] = molecular target: Protein kinase C delta type (Homo sapiens) (UniProt Q05655); test: Inhibition of PKCdelta (unknown origin) at 1 uM by selectscreen kinase profiling assay in presence of ATP
Protein kinase C delta type (Homo sapiens), sequence (Q05655 whole entry, looked up): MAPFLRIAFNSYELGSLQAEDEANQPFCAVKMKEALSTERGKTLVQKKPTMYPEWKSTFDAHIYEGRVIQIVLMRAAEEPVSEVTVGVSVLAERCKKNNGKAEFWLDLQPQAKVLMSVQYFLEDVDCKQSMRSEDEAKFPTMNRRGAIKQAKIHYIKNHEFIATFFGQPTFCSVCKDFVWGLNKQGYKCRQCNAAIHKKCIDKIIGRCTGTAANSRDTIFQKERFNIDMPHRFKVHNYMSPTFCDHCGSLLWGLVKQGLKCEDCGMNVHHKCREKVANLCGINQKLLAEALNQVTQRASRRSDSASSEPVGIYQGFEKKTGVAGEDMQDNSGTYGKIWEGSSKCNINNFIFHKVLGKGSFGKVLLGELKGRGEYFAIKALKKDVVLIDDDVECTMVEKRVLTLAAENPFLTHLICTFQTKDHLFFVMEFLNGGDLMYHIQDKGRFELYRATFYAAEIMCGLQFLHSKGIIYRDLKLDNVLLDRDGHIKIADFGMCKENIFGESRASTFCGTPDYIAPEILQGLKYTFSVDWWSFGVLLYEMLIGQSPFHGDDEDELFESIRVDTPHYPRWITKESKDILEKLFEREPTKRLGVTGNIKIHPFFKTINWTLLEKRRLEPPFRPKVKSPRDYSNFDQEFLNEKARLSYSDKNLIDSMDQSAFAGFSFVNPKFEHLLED

[25] = Antiproliferative activity against human ANGM-CSS cells assessed as inhibition of cell growth after 120 hrs by WST1 assay; assay type: functional
ANGM-CSS [26] = test: Effect on human GSC morphology derived from ANGM-CSS cells assessed as reduction in area occupied by floating spheres at 1 uM after 7 days by microscopic analysis; assay type: functional, cell-based

COc1cc2c(cc1OC)CN(CC(=O)Nc1ccc3c(c1)/C(=C/c1cnc[nH]1)C(=O)N3)CC2
inhibition [1]: 5% | inhibition [2]: 3% | inhibition [3]: 8% | IC50 [4]: 0.998 µM | inhibition [5]: 0% | growth inhibition (GI) (U-118-MG): Dose-dependent effect | inhibition [6]: 37% | inhibition [7]: -8% | Activity [8]: 12.65% | inhibition [9]: 25% | GI50 [10]: 3.98 µM | inhibition [11]: inactive | inhibition [12]: 8% | GI50 [13]: 29.9 µM | inhibition [14]: 28% | inhibition [15]: 18% | Activity (ANGM-CSS [16]): Active | GI50 [17]: 14.6 µM | Activity (ANGM-CSS [18]): Active | inhibition [19]: 37% | IC50 [20]: 0.98 µM | inhibition (Homo sapiens): -6% | Activity [21]: 79.63% | Activity [22]: 1.74% | Activity (ANGM-CSS [23]): Active | inhibition [24]: -5% | GI50 [25]: 12.9 µM | Activity (ANGM-CSS [26]): Active
